Patent US8338598B2, “Herbicidal pyrido[2,3-B]pyrazines and their use as herbicides” (Syngenta Limited, priority 2008, dated 2012)

How the values were obtained:
Assay type in all cases: in vivo
[1] = test system: test plants; assay: Example B2 herbicidal action, pre-emergence, overall statement on the test plants; conditions: Example B2 protocol, rate not stated, result in words
Method: (§1) Seeds of a variety of test species were sown in standard soil in pots. After cultivation for one day (pre-emergence) or after 8 days cultivation (post-emergence) under controlled conditions in a glasshouse (at 24/16° C., day/night; 14 hours light; 65% humidity), the plants were sprayed with an aqueous spray solution derived from the formulation of the technical active ingredient in acetone/water (50:50) solution containing 0.5% Tween 20 (polyoxyethelyene sorbitan monolaurate, CAS RN 9005-64-5). The test plants were then grown in a glasshouse under controlled conditions in a glasshouse (at 24/16° C., day/night; 14 hours light; 65% humidity) and watered twice daily. After 13 days, the test was evaluated (10=total damage to plant; 0=no damage to plant).

[2] = test system: Amaranthus retroflexus; assay: Example B2 herbicidal action, post-emergence, pots in glasshouse; conditions: evaluated after 13 days, 10=total damage to plant, 0=no damage to plant
Method: as §1

[3] = test system: Echinochloa crus-galli; assay: as above; conditions: evaluated after 13 days, 10=total damage to plant, 0=no damage to plant
Method: as §1

[4] = test system: Ipomea hederaceae; assay: as above; conditions: evaluated after 13 days, 10=total damage to plant, 0=no damage to plant
Method: as §1

[5] = test system: Setaria faberi; assay: as above; conditions: evaluated after 13 days, 10=total damage to plant, 0=no damage to plant
Method: as §1

[6] = test system: Solanum nigrum; assay: as above; conditions: evaluated after 13 days, 10=total damage to plant, 0=no damage to plant
Method: as §1

[7] = test system: Amaranthus retroflexus; assay: Example B1 herbicidal action, post-emergence, seed trays in climatic chamber; conditions: 1000 g/ha, evaluated after 9 days, 10=total damage to plant, 0=no damage to plant
Method: (§2) Seeds of a variety of test species were sown in sterilised standard soil in seed trays each having 96 cells. After cultivation for 8 to 9 days cultivation (post-emergence) under controlled conditions in a climatic chamber (cultivation at 23/17° C., day/night; 13 hours light; 50-60% humidity), the plants were treated with an aqueous spray solution of 1000 mg/l of the active ingredient dissolved in 10% DMSO (dimethyl sulfoxide, CAS RN 67-68-5) as a solvent, equivalent to 1000 g/ha. The plants were grown in the climatic chamber after application at (24/19° C., day/night; 13 hours light; 50-60% humidity) and watered twice daily. After 9 days until the test was evaluated (10=total damage to plant, 0=no damage to plant)

[8] = test system: Nasturtium officinale; assay: as above; conditions: 1000 g/ha, evaluated after 9 days, 10=total damage to plant, 0=no damage to plant
Method: as §2

[9] = test system: Solanum nigrum; assay: as above; conditions: 1000 g/ha, evaluated after 9 days, 10=total damage to plant, 0=no damage to plant
Method: as §2

[10] = test system: Stellaria media; assay: as above; conditions: 1000 g/ha, evaluated after 9 days, 10=total damage to plant, 0=no damage to plant
Method: as §2

[11] = test system: test plants; assay: Example B2 herbicidal action, post-emergence, overall statement on the test plants; conditions: Example B2 protocol, rate not stated, result in words
Method: as §1

Structure (SMILES) | damage to the test plants [1] | AMARE, damage to plant ([2]; 1000 g/ha) | ECHCG, damage to plant ([3]; 1000 g/ha) | IPOHE, damage to plant ([4]; 1000 g/ha) | SETFA, damage to plant ([5]; 1000 g/ha) | SOLNI, damage to plant ([6]; 1000 g/ha) | AMARE, damage to plant [7] | NAAOF, damage to plant [8] | SOLNI, damage to plant [9] | STEME, damage to plant [10] | other results
CC(C)(C)C(=O)Oc1c(-c2c(Cl)cncc2Cl)c(=O)[nH]c2nccnc12 [Compound A8, 2,2-Dimethyl-propionic acid 7-(3,5-dichloro-pyrid-4-yl)-6-oxo-5,6-dihydro-pyrido[2,3-b]pyrazin-8-yl ester] | little or no damage | 0 | 0 | 1 | 0 | 1 |  |  |  |  | 
Cn1c(=O)c(-c2ccc(Cl)nc2Cl)c(OC(=O)C(C)(C)C)c2nccnc21 [Compound A15, 2,2-Dimethyl-propionic acid 7-(2,6-dichloro-pyrid-3-yl)-5-methyl-6-oxo-5,6-dihydro-pyrido[2,3-b]pyrazin-8-yl ester] | little or no damage |  |  |  |  |  |  |  |  |  | AMARE, damage to plant ([2]; 250 g/ha): 2; ECHCG, damage to plant ([3]; 250 g/ha): 3; IPOHE, damage to plant ([4]; 250 g/ha): 4; SETFA, damage to plant ([5]; 250 g/ha): 0; SOLNI, damage to plant ([6]; 250 g/ha): 4
Cn1nc(-c2c(O)c3nccnc3[nH]c2=O)c(C(F)(F)F)n1 [Compound B27] | little or no damage | 0 | 1 | 1 | 3 | 0 |  |  |  |  | 
Cc1noc(-c2c(O)c3nccnc3n(C)c2=O)n1 [Compound B5, 8-hydroxy-5-methyl-7-(3-methyl-1,2,4-oxadiazol-5-yl)-5H-pyrido[2,3-b]pyrazin-6-one] |  |  |  |  |  |  | 3 | 0 | 0 | 0 | 
O=c1[nH]c2nccnc2c(O)c1-c1cc(Cl)sc1Cl [Compound B12] |  |  |  |  |  |  | 6 | 0 | 0 | 0 | 
CCn1c(=O)c(-c2ncc(Cl)cc2Cl)c(OC(=O)C(C)C)c2nccnc21 [Compound A6, isobutyric acid 7-(3,5-dichloro-pyrid-2-yl)-5-ethyl-6-oxo-5,6-dihydro-pyrido[2,3-b]pyrazin-8-yl ester] |  |  |  |  |  |  | 2 | 5 | 0 | 3 | 
O=c1[nH]c2nccnc2c(O)c1-c1ccc(Cl)nc1Cl [Compound A13, 7-(2,6-dichloro-pyrid-3-yl)-8-hydroxy-5H-pyrido[2,3-b]pyrazin-6-one] | little or no damage | 6 | 6 | 6 | 6 | 5 |  |  |  |  | 
Cc1nc2cc(-c3c(OC(=O)C(C)(C)C)c4nccnc4n(CC(F)F)c3=O)ccc2o1 [Compound C6] | little or no damage | 3 | 0 | 0 | 0 | 2 |  |  |  |  | 
Cc1nc(Cl)sc1-c1c(OC(=O)C(C)(C)C)c2nccnc2n(C)c1=O [Compound B3] |  |  |  |  |  |  | 0 | 6 | 0 | 2 | 
Cc1nc2cc(-c3c(OC(=O)C(C)(C)C)c4nccnc4[nH]c3=O)ccc2o1 [Compound C5] | little or no damage |  |  |  |  |  |  |  |  |  | damage to the test plants [11]: little or no damage
Cc1cc(-c2c(OC(=O)C(C)C)c3nccnc3[nH]c2=O)n2nc(C)cc2n1 [Compound C4] |  |  |  |  |  |  | 0 | 0 | 2 | 0 | 
Cc1nc(Cl)sc1-c1c(OC(=O)C(C)C)c2nccnc2n(C)c1=O [Compound B2, isobutyric acid 7-(2-chloro-4-methyl-thiazol-5-yl)-5-methyl-6-oxo-5,6-dihydro-pyrido[2,3-b]pyrazin-8-yl ester] |  |  |  |  |  |  | 0 | 5 | 0 | 0 | 
CC(C)C(=O)Oc1c(-c2c(C(F)(F)F)nn(C)c2OC(F)F)c(=O)[nH]c2nccnc12 [Compound B23, isobutyric acid 7-(5-difluoromethoxy-1-methyl-3-trifluoromethyl-1H-pyrazol-4-yl)-6-oxo-5,6-dihydro-pyrido[2,3-b]pyrazin-8-yl ester] | little or no damage |  |  |  |  |  |  |  |  |  | AMARE, damage to plant ([2]; 250 g/ha): 3; ECHCG, damage to plant ([3]; 250 g/ha): 2; IPOHE, damage to plant ([4]; 250 g/ha): 2; SETFA, damage to plant ([5]; 250 g/ha): 4; SOLNI, damage to plant ([6]; 250 g/ha): 1
